According to patent US7645752B2, “Sulfonyl substituted 1H-indoles as ligands for the 5-hydroxytryptamine receptors” (Wyeth LLC, priority 2006, dated 2010):
Structures can show the parent of a compound that is named as a salt.

Columns and labels:
[1] = target: T1, human cloned 5-HT6 receptors (Homo sapiens, UniProt P50406); experiment: 5-HT6 binding affinity, [3H]-LSD displacement on membranes of Hela cells; settings: Table 1; for inhibition at 1 µM: 5-HT6 binding, at 1 micromole, read-out: % inhibition at 1 micromole; for Ki: [3H]-LSD 3.0 nM, Hela cell membranes, read-out: Ki (nM) @ 5-HT6 receptor
T1 construct: expressed in transfected cells; host or cells: HeLa cells
T1 sequence (P50406 whole entry): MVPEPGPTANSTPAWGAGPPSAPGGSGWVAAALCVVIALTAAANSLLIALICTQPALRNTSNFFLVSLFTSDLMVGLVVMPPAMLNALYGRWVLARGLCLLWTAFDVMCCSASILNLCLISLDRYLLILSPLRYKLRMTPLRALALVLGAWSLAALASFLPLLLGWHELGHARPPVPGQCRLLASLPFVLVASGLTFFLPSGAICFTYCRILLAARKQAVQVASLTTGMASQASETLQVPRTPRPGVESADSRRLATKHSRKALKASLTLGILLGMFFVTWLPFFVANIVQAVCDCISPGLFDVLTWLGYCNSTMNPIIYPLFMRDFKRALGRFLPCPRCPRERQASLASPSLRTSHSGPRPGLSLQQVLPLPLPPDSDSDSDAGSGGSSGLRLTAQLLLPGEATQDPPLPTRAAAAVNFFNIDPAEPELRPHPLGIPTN
Method: The affinity of test compounds for the 5-HT6 receptor is evaluated in the following manner. Cultured Hela cells expressing human cloned 5-HT6 receptors are harvested and centrifuged at low speed (1,000×g) for 10.0 min to remove the culture media. The harvested cells are suspended in half volume of fresh physiological phosphate buffered saline solution and recentrifuged at the same speed. This operation is repeated. The collected cells are then homogenized in ten volumes of 50 mM Tris.HCl (pH 7.4) and 0.5 mM EDTA. The homogenate is centrifuged at 40,000×g for 30.0 min and the precipitate is collected. The obtained pellet is resuspended in 10 volumes of Tris.HCl buffer and recentrifuged at the same speed. The final pellet is suspended in a small volume of Tris.HCl buffer and the tissue protein content is determined in aliquots of 10-25 microliter volumes. […] The volume of the suspended cell membranes is adjusted to give a tissue protein concentration of 1.0 mg/mL of suspension. The prepared membrane suspension (10 times concentrated) is aliquoted in 1.0 mL volumes and stored at −70° C. until used in subsequent binding experiments.
Binding experiments are performed in a 96 well microtiter plate format in a total volume of 200 microliters. […] The test compounds are added in 20.0 microliter volume.
The bound complex caught on the filter disk is allowed to air dry and the radioactivity is measured in a Packard TopCount® equipped with six photomultiplier detectors, after the addition of 40.0 microliter Microscint®-20 scintillant to each shallow well.
Binding in the presence of varying concentrations of test compound is expressed as a percentage of specific binding in the absence of test compound. The results are plotted as log % bound versus log concentration of the test compound.

CCN(C)CCc1cccc2c(S(=O)(=O)c3ccccc3)c[nH]c12 (as salt: hydrochloride) [Example 24, N-ethyl-N-methyl-N-{2-[3-(phenylsulfonyl)-1H-indol-7-yl]ethyl}amine]
melting point: 215 to 218 °C (dec.)

O=S(=O)(c1ccccc1)c1c[nH]c2cccc(CCNC3CCCCC3)c12 (as salt: hydrochloride) [Example 39, N-{2-[3-(phenylsulfonyl)-1H-indol-4-yl]ethyl}cyclohexanamine]
melting point: 241 °C

CC(C)NCCc1cccc2c(S(=O)(=O)c3ccccc3)c[nH]c12 (as salt: hydrochloride) [Example 21, N-{2-[3-(phenylsulfonyl)-1H-indol-7-yl]ethyl}propan-2-amine]
melting point: 291 to 293 °C (dec.)

O=S(=O)(c1ccccc1)c1c[nH]c2ccc(CCNCc3ccccc3)cc12 (as salt: hydrochloride) [Example 6, N-benzyl-N-{2-[3-(phenylsulfonyl)-1H-indol-5-yl]ethyl}amine]
melting point: 215 to 220 °C

O=S(=O)(c1ccccc1)c1c[nH]c2c(CCN3CCNCC3)cccc12 (as salt: hydrochloride) [Example 30, 3-(phenylsulfonyl)-7-(2-piperazin-1-ylethyl)-1H-indole]
melting point: 190 °C

CC(C)NCCc1ccc2c(S(=O)(=O)c3ccccc3)c[nH]c2c1 [Example 90, N-{2-[3-(phenylsulfonyl)-1H-indol-6-yl]ethyl}propan-2-amine]
inhibition at 1 µM [1]: 78%

CCN(C)CCc1cccc2[nH]cc(S(=O)(=O)c3cccc(F)c3)c12 [Example 71, N-ethyl-N-methyl-N-{2-[3-(3-fluorophenylsulfonyl)-1H-indol-4-yl]ethyl}amine]
Ki [1]: 116 nM

CCN(C)CCc1ccc2c(S(=O)(=O)c3ccccc3)c[nH]c2c1 [Example 95, N-ethyl-N-methyl-N-{2-[3-(phenylsulfonyl)-1H-indol-6-yl]ethyl}amine]
Ki [1]: 118 nM

O=S(=O)(c1ccccc1)c1c[nH]c2cc(CCNCC3CCCO3)ccc12 (centres unmarked) [Example 107, N-{2-[3-(phenylsulfonyl)-1H-indol-6-yl]ethyl}-N-((tetrahydrofur-2-yl)methyl)amine]
Ki [1]: 85 nM

CC(C)NCCc1cccc2c(S(=O)(=O)c3ccccc3)c[nH]c12 [Example 21, N-{2-[3-(phenylsulfonyl)-1H-indol-7-yl]ethyl}propan-2-amine]
Ki [1]: 9.4 nM

CC(NCCc1ccc2c(S(=O)(=O)c3ccccc3)c[nH]c2c1)C(C)(C)C (centres unmarked) [Example 105, N-{2-[3-(phenylsulfonyl)-1H-indol-6-yl]ethyl}-N-(1,2,2-trimethylpropyl)amine]
inhibition at 1 µM [1]: 55%

CC(C)(C)CNCCc1cccc2[nH]cc(S(=O)(=O)c3cccc(F)c3)c12 [Example 81, N-(2,2-dimethylpropyl)-N-{2-[3-(3-fluorophenylsulfonyl)-1H-indol-4-yl]ethyl}amine]
inhibition at 1 µM [1]: 74%

CC(C)CNCCc1ccc2c(S(=O)(=O)c3ccccc3)c[nH]c2c1 [Example 102, N-isobutyl-N-{2-[3-(phenylsulfonyl)-1H-indol-6-yl]ethyl}amine]
inhibition at 1 µM [1]: 72%

O=S(=O)(c1ccccc1)c1c[nH]c2ccc(CCN3CCCCC3)cc12 [Example 10, 3-(phenylsulfonyl)-5-(2-piperidin-1-ylethyl)-1H-indole]
Ki [1]: 10.3 nM

CN(CCc1cccc2[nH]cc(S(=O)(=O)c3cccc(F)c3)c12)C1CCCCC1 [Example 72, N-cyclohexyl-N-methyl-N-{2-[3-(3-fluorophenylsulfonyl)-1H-indol-4-yl]ethyl}amine]
inhibition at 1 µM [1]: 66%

NCCc1ccc2c(S(=O)(=O)c3ccccc3)c[nH]c2c1 [Example 109, {2-[3-(phenylsulfonyl)-1H-indol-6-yl]ethyl}amine]
Ki [1]: 10 nM

O=S(=O)(c1ccccc1)c1c[nH]c2ccc(CCN3CCCC3)cc12 [Example 9, 3-(phenylsulfonyl)-5-(2-pyrrolidin-1-ylethyl)-1H-indole]
Ki [1]: 28 nM
